Experimental findings from patent publication US20040241114A1, “Hair Care and Nail Care Compositions Based on Ion-Pair Delivery System for Gender and Ethnic Selective Applications” (priority 2003, published 2004) are described below.

What all share (format): physicochemical
Data set [1] is described as follows: Stability of water solution.
The nature of another data set: pH of 1% water solution.
A short description of a further data set: Solubility in water. The source says:
The ion-pair compositions thus formed are not just physical mixtures of the two compositions that are combined in an ion-pair mode to form such ion-pair compositions. Such ion-pair compositions are discreet chemical entities. For example, the combination of niacinamide with N-Acetyl-Cysteine results in the formation of ion-pair complex, Niacinamide N-Acetyl Cysteinate. […] Niacinamide N-Acetyl-Cysteinate, the ion-pair that is produced from the combination of the above two compositions is a new ingredient properties of which are very different from that of the above two compositions, which shall be described elsewhere.

`CC(=O)N[C@@H](CS)C(=O)O` [N-Acetyl-Cysteine]: the “stability of water solution” value in data set [1] is “poor”. Further, the “pH of 1% water solution” value in the data set “pH of 1% water solution” stood at 3.5. Moreover, the solubility in water in the data set “Solubility in water” is greater than 20%.
The like results for `NC(=O)c1cccnc1` [niacinamide] were, in that order, “good”, 6.3 and 50%.
